One may read the inhibition as the percentage by which the read-out fell short of the control. Read a low inhibition as a response near the control. Broadly, the IC50 is the point on the concentration scale where inhibition reaches its midpoint. A lower IC50 goes with greater potency in that assay.

The values that follow come from ChEMBL document CHEMBL1134433, “Discovery of a novel CCR3 selective antagonist” (Bioorg Med Chem Lett, 2001).

Common to all, as to format: cell-based
Experiment [1] concerns the target T1, C-C chemokine receptor type 3 (Homo sapiens) (UniProt P51677).
T1 sequence (whole entry): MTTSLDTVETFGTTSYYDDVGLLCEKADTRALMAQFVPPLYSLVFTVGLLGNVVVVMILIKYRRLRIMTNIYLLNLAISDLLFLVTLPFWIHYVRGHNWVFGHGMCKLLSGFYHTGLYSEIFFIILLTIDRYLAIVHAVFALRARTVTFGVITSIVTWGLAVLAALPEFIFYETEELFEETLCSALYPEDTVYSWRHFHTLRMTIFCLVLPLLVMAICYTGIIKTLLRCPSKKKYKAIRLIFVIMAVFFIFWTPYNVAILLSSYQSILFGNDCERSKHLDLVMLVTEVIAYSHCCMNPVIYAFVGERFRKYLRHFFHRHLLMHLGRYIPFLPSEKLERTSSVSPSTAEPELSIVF
The experiment can be described thus: Percent inhibition of [125I]eotaxin binding to human CCR3 receptor expressed in CHO cells at 1 uM.

Experiment [2] concerns the target T2, C-C chemokine receptor type 3 (Homo sapiens, UniProt P51677).
T2 sequence (P51677 whole entry): T1 sequence (whole entry)
The experiment can be described thus: Concentration required for 50% inhibition of [125I]eotaxin binding to human CCR3 receptor expressed in CHO cells.

For experiment [3], the target named is T3, C-C chemokine receptor type 1 (Homo sapiens, UniProt P32246).
T3 sequence (P32246 whole entry): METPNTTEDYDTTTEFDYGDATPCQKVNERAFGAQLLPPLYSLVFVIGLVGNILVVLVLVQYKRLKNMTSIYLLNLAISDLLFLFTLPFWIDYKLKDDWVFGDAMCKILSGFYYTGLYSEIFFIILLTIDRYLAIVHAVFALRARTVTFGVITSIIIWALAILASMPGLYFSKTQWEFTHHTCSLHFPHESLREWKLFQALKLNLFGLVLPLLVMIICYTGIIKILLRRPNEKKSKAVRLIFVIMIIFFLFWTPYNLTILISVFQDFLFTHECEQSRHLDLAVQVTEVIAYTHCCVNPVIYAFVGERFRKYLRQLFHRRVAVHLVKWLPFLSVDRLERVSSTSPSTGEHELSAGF
Kind of experiment: Concentration required for 50% inhibition of [125I]eotaxin binding to human CCR1 receptor expressed in CHO cells.

A value given as a limit tells only on which side of the number the result lay.

For `O=C(CSc1nc2ccccc2s1)NCC1CCCN(Cc2nccs2)C1` (stereo not given), the inhibition in experiment [1] turned out to be 0%.

`O=C(CSc1nc2ccccc2s1)NCC1CCCN(CCc2ccccc2)C1` (stereo not given) gave an inhibition in experiment [1] of 0%.

`CCCN1CCCC(CNC(=O)CSc2nc3ccccc3s2)C1` (stereo not given): the inhibition in experiment [1] is 30%.

Turning to `O=C(CSc1nc2ccccc2s1)NCC1CCCN(CC2CCCCC2)C1` (stereo not given), the IC50 in experiment [2] was found to be 1 µM.

Compound `CCCCCN1CCCC(CNC(=O)CSc2nc3ccccc3s2)C1` (stereo not given) registered an inhibition in experiment [1] of 0%.

`O=C(CSc1nc2ccccc2s1)NCC1CCCN(Cc2cccc3ccccc23)C1` (stereo not given): in experiment [1], the inhibition was determined as 15%.

On to `O=C(CSc1nc2ccccc2s1)NCC1CCCN(Cc2ccccc2)C1` (stereo not given), for which the IC50 in experiment [2] is 1 µM; in experiment [3] it was 4.2 µM.

As for `O=C(CSc1nc2ccccc2s1)NC1CCN(Cc2ccc(Cl)cc2)CC1`, the results for the IC50 in experiment [2] and in experiment [3] were 0.079 µM and 0.26 µM, respectively.

Take `O=C(CSc1nc2ccccc2s1)NC1CCN(Cc2ccccc2)CC1`: the concentration for half-maximal inhibition (IC50) in experiment [2] was 0.75 µM; in experiment [3], 7.1 µM.

On to `Nc1ccc2nc(SCC(=O)NC3CCN(Cc4ccc(Cl)c(Cl)c4)CC3)sc2c1`, for which the IC50 in experiment [2] amounted to 0.0023 µM; in experiment [3], 1.9 µM.

In the case of `CCOc1ccc2nc(SCC(=O)NC3CCN(Cc4ccc(Cl)c(Cl)c4)CC3)sc2c1`, the figures for the IC50 in experiment [2] and in experiment [3] were 0.02 µM and 3.6 µM, respectively.

In the case of `O=C(CSc1nc2ccccc2s1)NC1CCN(Cc2ccc(Cl)c(Cl)c2)CC1`, the IC50 turned out to be 0.032 µM in experiment [2] and 0.45 µM in experiment [3].

In the case of `O=C(CSc1nc2ccccc2s1)NC1CCN(Cc2cccc(Cl)c2)CC1`, the results for the IC50 in experiment [2] and in experiment [3] were 0.28 µM and above 10 µM, respectively.

With `O=C(CSc1nc2ccccc2s1)NCC1CCCN(Cc2cccnc2)C1` (stereo not given), the inhibition in experiment [1] is 0%.

In the case of `CCOC(=O)c1ccc2nc(SCC(=O)NC3CCN(Cc4ccc(Cl)c(Cl)c4)CC3)sc2c1`, the IC50 in experiment [2] was 0.048 µM; in experiment [3], above 10 µM.

For the compound `O=C(CSc1nc2ccccc2s1)NCC1CCCN(Cc2ccc3ccccc3c2)C1` (stereo not given), the inhibition in experiment [1] stood at 5%.

In experiment [1], `O=C(CSc1nc2ccccc2s1)NCC1CCCN(Cc2ccncc2)C1` (stereo not given) yielded an inhibition of 0%.
